Assay results from PubChem BioAssay AID1963858 (Molecular Pharmacology Branch, DTP, NCI, 2024).

Tested on: HOP-62 multicell spheroids with HUVEC/MSC, viability
Experiment: Anticancer human tumor HOP-62 cell line growth inhibition [KRAS2];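 further: viability read after a week of compound exposure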;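 on viability, T/C: 100% = DMSO vehicle-treated spheroids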
Conditions: for IC50: curve of first compound; for viability, T/C: stronger effect = lower value
How it was run: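 Combination screen of spheroid viability in tumor-cell co-cultures with endothelial (HUVEC) and mesenchymal stem cell stroma. Each agent was tested in half-log dilutions, topping at clinical Cmax or at 10 microM without a known Cmax.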

[1] = second compound 0.1 µM, first compound 0.01 µM
[2] = second compound 0.1 µM, first compound 0.0316 µM
[3] = second compound 0.1 µM, first compound 0.1 µM
[4] = second compound 0.1 µM, first compound 0.316 µM
[5] = second compound 0.1 µM, first compound 1 µM
[6] = second compound 0.1 µM, first compound 3.16 µM
[7] = second compound 0.316 µM, first compound 0.01 µM
[8] = second compound 0.316 µM, first compound 0.0316 µM
[9] = second compound 0.316 µM, first compound 0.1 µM
[10] = second compound 0.316 µM, first compound 0.316 µM
[11] = second compound 0.316 µM, first compound 1 µM
[12] = second compound 0.316 µM, first compound 3.16 µM
[13] = second compound 1 µM, first compound 0.01 µM
[14] = second compound 1 µM, first compound 0.0316 µM
[15] = second compound 1 µM, first compound 0.1 µM
[16] = second compound 1 µM, first compound 0.316 µM
[17] = second compound 1 µM, first compound 1 µM
[18] = second compound 1 µM, first compound 3.16 µM
[19] = second compound 3.16 µM, first compound 0.01 µM
[20] = second compound 3.16 µM, first compound 0.0316 µM
[21] = second compound 3.16 µM, first compound 0.1 µM
[22] = second compound 3.16 µM, first compound 0.316 µM
[23] = second compound 3.16 µM, first compound 1 µM
[24] = second compound 3.16 µM, first compound 3.16 µM
[25] = second compound 10 µM, first compound 0.01 µM
[26] = second compound 10 µM, first compound 0.0316 µM
[27] = second compound 10 µM, first compound 0.1 µM
[28] = second compound 10 µM, first compound 0.316 µM
[29] = second compound 10 µM, first compound 1 µM
[30] = second compound 10 µM, first compound 3.16 µM

CC1COCCN1c1cc(-c2ccnn2C)c2ccnc(-c3ccn[nH]3)c2n1 (stereo not given) + COc1cc2nc(C)nc(NC(C)c3cc(N)cc(C(F)(F)F)c3)c2cc1OC1CCOC1
IC50 (second compound 0.1 µM): < 0.01 µM
IC50 (second compound 0.316 µM): 0.0686 µM
IC50 (second compound 1 µM): 0.0542 µM
IC50 (second compound 3.16 µM): 0.0228 µM
IC50 (second compound 10 µM): 0.0109 µM
viability, T/C [1]: 8.83%
viability, T/C [2]: 6.78%
viability, T/C [3]: 7.26%
viability, T/C [4]: 6.53%
viability, T/C [5]: 8.4%
viability, T/C [6]: 10.7%
viability, T/C [7]: 125%
viability, T/C [8]: 83.5%
viability, T/C [9]: 33.9%
viability, T/C [10]: 16.5%
viability, T/C [11]: 13.4%
viability, T/C [12]: 14.4%
viability, T/C [13]: 120%
viability, T/C [14]: 65.8%
viability, T/C [15]: 31.4%
viability, T/C [16]: 19.6%
viability, T/C [17]: 12.5%
viability, T/C [18]: 11.2%
viability, T/C [19]: 77.4%
viability, T/C [20]: 38.2%
viability, T/C [21]: 22.9%
viability, T/C [22]: 13.9%
viability, T/C [23]: 9.69%
viability, T/C [24]: 10.8%
viability, T/C [25]: 52.1%
viability, T/C [26]: 36%
viability, T/C [27]: 27.4%
viability, T/C [28]: 22.3%
viability, T/C [29]: 15.8%
viability, T/C [30]: 12.9%

CC(=O)Nc1cccc(-n2c(=O)n(C3CC3)c(=O)c3c(Nc4ccc(I)cc4F)n(C)c(=O)c(C)c32)c1 + C=CC(=O)N1CCN(c2nc(=O)n(-c3c(C)ccnc3C(C)C)c3nc(-c4c(O)cccc4F)c(F)cc23)C(C)C1
IC50 (second compound 0.1 µM): 0.00078 µM
IC50 (second compound 0.316 µM): 0.000879 µM
IC50 (second compound 1 µM): 0.000915 µM
IC50 (second compound 3.16 µM): 0.000561 µM
IC50 (second compound 10 µM): 0.000124 µM
viability, T/C (second compound 0.1 µM, first compound 0.0001 µM): 78.5%
viability, T/C (second compound 0.1 µM, first compound 0.000316 µM): 61.2%
viability, T/C (second compound 0.1 µM, first compound 0.001 µM): 49.1%
viability, T/C (second compound 0.1 µM, first compound 0.00316 µM): 29.7%
viability, T/C [1]: 18.9%
viability, T/C [2]: 14.7%
viability, T/C (second compound 0.316 µM, first compound 0.0001 µM): 61.6%
viability, T/C (second compound 0.316 µM, first compound 0.000316 µM): 72.7%
viability, T/C (second compound 0.316 µM, first compound 0.001 µM): 43.8%
viability, T/C (second compound 0.316 µM, first compound 0.00316 µM): 30.2%
viability, T/C [7]: 19.2%
viability, T/C [8]: 16.8%
viability, T/C (second compound 1 µM, first compound 0.0001 µM): 73.8%
viability, T/C (second compound 1 µM, first compound 0.000316 µM): 61.7%
viability, T/C (second compound 1 µM, first compound 0.001 µM): 51%
viability, T/C (second compound 1 µM, first compound 0.00316 µM): 32%
viability, T/C [13]: 22.6%
viability, T/C [14]: 18.5%
viability, T/C (second compound 3.16 µM, first compound 0.0001 µM): 77.2%
viability, T/C (second compound 3.16 µM, first compound 0.000316 µM): 50.6%
viability, T/C (second compound 3.16 µM, first compound 0.001 µM): 44.5%
viability, T/C (second compound 3.16 µM, first compound 0.00316 µM): 39.4%
viability, T/C [19]: 26.2%
viability, T/C [20]: 22.1%
viability, T/C (second compound 10 µM, first compound 0.0001 µM): 53.8%
viability, T/C (second compound 10 µM, first compound 0.000316 µM): 39%
viability, T/C (second compound 10 µM, first compound 0.001 µM): 43%
viability, T/C (second compound 10 µM, first compound 0.00316 µM): 34.8%
viability, T/C [25]: 26.8%
viability, T/C [26]: 22.8%

COC(=O)c1ccc2c(C(=Nc3ccc(N(C)C(=O)CN4CCN(C)CC4)cc3)c3ccccc3)c(O)[nH]c2c1 + COc1cc2nc(C)nc(NC(C)c3cc(N)cc(C(F)(F)F)c3)c2cc1OC1CCOC1
IC50 (second compound 0.1 µM): 0.797 µM
IC50 (second compound 0.316 µM): 0.325 µM
IC50 (second compound 1 µM): 0.0522 µM
IC50 (second compound 3.16 µM): < 0.0316 µM
IC50 (second compound 10 µM): < 0.0316 µM
viability, T/C [2]: 98.5%
viability, T/C [3]: 85.7%
viability, T/C [4]: 53%
viability, T/C [5]: 50.9%
viability, T/C [6]: 34.9%
viability, T/C (second compound 0.1 µM, first compound 10 µM): 10.4%
viability, T/C [8]: 67%
viability, T/C [9]: 57.1%
viability, T/C [10]: 51.5%
viability, T/C [11]: 25.5%
viability, T/C [12]: 26.3%
viability, T/C (second compound 0.316 µM, first compound 10 µM): 20.8%
viability, T/C [14]: 54%
viability, T/C [15]: 46.1%
viability, T/C [16]: 33.4%
viability, T/C [17]: 28.7%
viability, T/C [18]: 26.7%
viability, T/C (second compound 1 µM, first compound 10 µM): 16.2%
viability, T/C [20]: 45.2%
viability, T/C [21]: 32.6%
viability, T/C [22]: 36.5%
viability, T/C [23]: 24.5%
viability, T/C [24]: 18.9%
viability, T/C (second compound 3.16 µM, first compound 10 µM): 0.46%
viability, T/C [26]: 39.9%
viability, T/C [27]: 32.6%
viability, T/C [28]: 30.7%
viability, T/C [29]: 24.5%
viability, T/C [30]: 0.7%
viability, T/C (second compound 10 µM, first compound 10 µM): 0.2%
